Experimental data as given in US6410530B1, “Substituted 1,2,3,4-tetrahydronaphthalene derivatives” (AstraZeneca AB, priority 1996, dated 2002).

melting point	Compound
127 to 128 °C	CN1CCN(c2cccc3c2CC[C@@H](NC(=O)c2ccc(N4CCOCC4)cc2)C3)CC1 [Example 118, (R)-N-[5-(4-Methylpiperazin-1-yl)-1,2,3,4-tetrahydro-2-naphthyl]-4-morpholinobenzamide]
200 to 201 °C	CN1CCN(c2cccc3c2C[C@H](NC(=O)c2ccc(Br)cc2)CC3)CC1 [Example 73, (R)-N-[8-(4-Methylpiperazin-1-yl)-1,2,3,4-tetrahydro-2-naphthyl]-4-bromobenzamide]
232 to 233 °C	CN1CCN(c2cccc3c2C[C@H](NC(=O)c2ccc(-c4ccccc4)cc2)CC3)CC1 [Example 44, (R)-N-[8-(4-Methylpiperazin-1-yl)-1,2,3,4-tetrahydro-2-naphthyl]-1,1′-biphenyl-4-carboxamide]
151 to 152 °C	CN1CCN(c2cccc3c2C[C@H](NC(=O)Cc2ccccc2)CC3)CC1 [Example 80, (R)-N-[8-(4-Methylpiperazin-1-yl)-1,2,3,4-tetrahydro-2-naphthyl]phenylacetamide]
202 to 204 °C	CN1CCN(c2cccc3c2C[C@@H](NC(=O)c2ccc(C(F)(F)F)cc2)CC3)CC1 [Example 66, (S)-N-[8-(4-Methylpiperazin-1-yl)-1,2,3,4-tetrahydro-2-naphthyl]-4-trifluoromethylbenzamide]
87 °C (dec.)	CN1CCN(c2cccc3c2C[C@H](NC(=O)c2ccccc2O)CC3)CC1 [Example 92, (R)-N-[8-(4-Methylpiperazin-1-yl)-1,2,3,4-tetrahydro-2-naphthyl]-2-hydroxybenzamide]
144 to 145 °C	CN1CCN(c2cccc3c2C[C@H](NC(=O)c2ccccc2OS(C)(=O)=O)CC3)CC1 [Example 93, (R)-N-[8-(4-Methylpiperazin-1-yl)-1,2,3,4-tetrahydro-2-naphthyl]-2-methylsulfonyloxybenzamide]
195 to 196 °C	CN1CCN(c2cccc3c2C[C@H](NC(=O)c2ccccc2)CC3)CC1 [Example 48, (R)-N-[8-(4-Methylpiperazin-1-yl)-1,2,3,4-tetrahydro-2-naphthyl]benzamide]
230 to 231 °C	CN1CCN(c2cccc3c2C[C@H](NC(=O)c2ccc(N4CCOCC4)cc2)CC3)CC1 [Example 54, (R)-N-[8-(4-Methylpiperazin-1-yl)-1,2,3,4-tetrahydro-2-naphthyl]-4-morpholinobenzamide]
152 to 154 °C	CC(=O)N[C@@H]1CCc2cccc(N3CCN(C)CC3)c2C1
199 to 200 °C	CN1CCN(c2cccc3c2C[C@H](NC(=O)c2ccc(OS(C)(=O)=O)cc2)CC3)CC1 [Example 67, (R)-N-[8-(4-Methylpiperazin-1-yl)-1,2,3,4-tetrahydro-2-naphthyl]-4-methylsulfonyloxybenzamide]
124 to 127 °C	CN1CCN(c2cccc3c2C[C@H](NC(=O)c2ccc(C(=O)N4CCOCC4)cc2)CC3)CC1 [Example 129, (R)-N-[8-(4-Methylpiperazin-1-yl)-1,2,3,4-tetrahydro-2-naphthyl]-4-morpholinocarbonylbenzamide]
194 to 195 °C	CN1CCN(c2cccc3c2C[C@H](NC(=O)c2ccc(C(=O)c4ccccc4)cc2)CC3)CC1 [Example 76, (R)-N-[8-(4-Methylpiperazin-1-yl)-1,2,3,4-tetrahydro-2-naphthyl]-4-benzoylbenzamide]
129 to 131 °C	CN1CCN(c2cccc3c2CC[C@H](NC(=O)c2ccc(N4CCOCC4)cc2)C3)CC1 [Example 119, (S)-N-[5-(4-Methylpiperazin-1-yl)-1,2,3,4-tetrahydro-2-naphthyl]-4-morpholinobenzamide]
234 to 235 °C	CCc1ccc(-c2ccc(C(=O)N[C@@H]3CCc4cccc(N5CCN(C)CC5)c4C3)cc2)cc1 [Example 84, (R)-N-[8-(4-Methylpiperazin-1-yl)-1,2,3,4-tetrahydro-2-naphthyl]-4-(4-ethylphenyl)benzamide]
228 to 230 °C	CN1CCN(c2cccc3c2C[C@@H](NC(=O)c2ccc(N4CCOCC4)cc2)CC3)CC1 [Example 55, (S)-N-[8-(4-Methylpiperazin-1-yl)-1,2,3,4-tetrahydro-2-naphthyl]-4-morpholinobenzamide]
177 to 178 °C	CCc1ccc(C(=O)N[C@@H]2CCc3cccc(N4CCN(C)CC4)c3C2)cc1 [Example 69, (R)-N-[8-(4-Methylpiperazin-1-yl)-1,2,3,4-tetrahydro-2-naphthyl]-4-ethylbenzamide]
224 to 226 °C	CN1CCN(c2cccc3c2C[C@H](NC(=O)c2ccc(C4CCCCC4)cc2)CC3)CC1 [Example 63, (R)-N-[8-(4-Methylpiperazin-1-yl)-1,2,3,4-tetrahydro-2-naphthyl]-4-cyclohexylbenzamide]
179 to 180 °C	Cc1ccccc1C(=O)N[C@@H]1CCc2cccc(N3CCN(C)CC3)c2C1 [Example 90, (R)-N-[8-(4-Methylpiperazin-1-yl)-1,2,3,4-tetrahydro-2-naphthyl]-2-methylbenzamide]
261 to 262 °C	CN1CCN(c2cccc3c2C[C@H](NC(=O)c2ccc(-c4ccc(O)cc4)cc2)CC3)CC1 [Example 85, (R)-N-[8-(4-Methylpiperazin-1-yl)-1,2,3,4-tetrahydro-2-naphthyl]-4-(4-hydroxyphenyl)benzamide]
189 to 190 °C	CN1CCN(c2cccc3c2C[C@H](NC(=O)c2ccc(F)cc2)CC3)CC1 [Example 72, (R)-N-[8-(4-Methylpiperazin-1-yl)-1,2,3,4-tetrahydro-2-naphthyl]-4-fluorobenzamide]
204 to 205 °C	CN1CCN(c2cccc3c2C[C@H](NC(=O)c2ccc(Cl)cc2)CC3)CC1 [Example 74, (R)-N-[8-(4-Methylpiperazin-1-yl)-1,2,3,4-tetrahydro-2-naphthyl]-4-chlorobenzamide]
184 to 186 °C	CN1CCN(c2cccc3c2C[C@H](NC(=O)c2ccc(C#N)cc2)CC3)CC1 [Example 50, (R)-N-[8-(4-Methylpiperazin-1-yl)-1,2,3,4-tetrahydro-2-naphthyl]-4-cyanobenzamide]

The remaining lines, values behind:

Compound	melting point
Cc1cc(C(=O)N[C@@H]2CCc3cccc(N4CCN(C)CC4)c3C2)ccc1N1CCOCC1 [Example 61, (R)-N-[8-(4-Methylpiperazin-1-yl)-1,2,3,4-tetrahydro-2-naphthyl]-3-methyl-4-morpholinobenzamide]	172 to 175 °C
CCN1CCN(c2cccc3c2C[C@H](NC(C)=O)CC3)CC1	142 to 143 °C
CCCCOc1ccc(C(=O)N[C@@H]2CCc3cccc(N4CCN(C)CC4)c3C2)cc1 [Example 70, (R)-N-[8-(4-Methylpiperazin-1-yl)-1,2,3,4-tetrahydro-2-naphthyl]-4-butoxybenzamide]	190 to 191 °C
CN1CCN(c2cccc3c2C[C@H](NC(=O)C(F)(F)F)CC3)CC1	158 to 159 °C
CCCCN1CCN(c2cccc3c2C[C@H](NC(C)=O)CC3)CC1 [Example 27, (R)-N-[8-(4-Butylpiperazin-1-yl)-1,2,3,4-tetrahydro-2-naphthyl]acetamide]	118 to 120 °C
CCCCOc1ccc(C(=O)N[C@H]2CCc3cccc(N4CCN(C)CC4)c3C2)cc1 [Example 71, (S)-N-[8-(4-Methylpiperazin-1-yl)-1,2,3,4-tetrahydro-2-naphthyl]-4-butoxybenzamide]	190 to 192 °C
CN1CCN(c2cccc3c2C[C@H](N(C)C(=O)c2ccc(C(F)(F)F)cc2)CC3)CC1 [Example 122, (R)-N-Methyl-N-[8-(4-methylpiperazin-1-yl)-1,2,3,4-tetrahydro-2-naphthyl]-4-trifluoromethylbenzamide]	123 to 125 °C
CN1CCC(c2cccc3c2C[C@H](NC(=O)c2ccc(C(F)(F)F)cc2)CC3)CC1 [Example 99, (R)-N-[8-(1-Methylpiperidine-4yl)-1,2,3,4-tetrahydro-2-naphthyl]-4-trifluoromethylbenzamide]	163 to 166 °C
CN1CCN(c2cccc3c2C[C@H](NC(=O)CCCc2ccccc2)CC3)CC1 [Example 82, (R)-N-[8-(4-Methylpiperazin-1-yl)-1,2,3,4-tetrahydro-2-naphthyl]-4-phenylbutanamide]	137 to 139 °C
CCCN1CCN(c2cccc3c2C[C@H](NC(=O)c2ccc(N4CCOCC4)cc2)CC3)CC1 [Example 57, (R)-N-[8-(4-Propylpiperazin-1-yl)-1,2,3,4-tetrahydro-2-naphthyl]-4-morpholinobenzamide]	183 to 185 °C
CN1CCN(c2cccc3c2C[C@H](NC(=O)c2csc(-c4ccccc4)n2)CC3)CC1 [Example 46, (R)-N-[8-(4-Methylpiperazin-1-yl)-1,2,3,4-tetrahydro-2-naphthyl]-2-phenylthiazole-4-carboxamide]	175 to 176 °C
CN1CCN(c2cccc3c2C[C@H](NC(=O)c2csc(-c4ccncc4)n2)CC3)CC1 [Example 47, (R)-N-[8-(4-Methylpiperazin-1-yl)-1,2,3,4-tetrahydro-2-naphthyl]-2-(4-pyridyl)thiazole-4-carboxamide]	187 to 188 °C
CCCC(=O)N[C@@H]1CCc2cccc(N3CCN(C)CC3)c2C1	131 to 132 °C
CCCCCN1CCN(c2cccc3c2C[C@H](NC(C)=O)CC3)CC1 [Example 30, (R)-N-[8-(4-Pentylpiperazin-1-yl)-1,2,3,4-tetrahydro-2-naphthyl]acetamide]	119 to 120 °C
CCCCCCN1CCN(c2cccc3c2C[C@H](NC(C)=O)CC3)CC1 [Example 33, (R)-N-[8-(4-Hexylpiperazin-1-yl)-1,2,3,4-tetrahydro-2-naphthyl]acetamide]	117 to 118 °C
CN1CCN(c2cccc3c2C[C@H](NC(=O)C2CCCCC2)CC3)CC1 [Example 36, (R)-N-[8-(4-Methylpiperazin-1-yl)-1,2,3,4-tetrahydro-2-naphthyl]cyclohexanecarboxamide]	183 to 184 °C
CN1CCC(c2cccc3c2C[C@H](NC(=O)c2ccc(N4CCOCC4)cc2)CC3)CC1 [Example 101, (R)-N-[8-(1-Methylpiperidin-4-yl)-1,2,3,4-tetrahydro-2-naphthyl]-4-morpholinobenzamide]	196 to 198 °C
